Patent publication US20240423208A1, “AGRICULTURAL COMPOSITION AND METHOD FOR CULTIVATING PLANTS USING SAME” (KANEKA CORPORATION, priority 2022, published 2024)

Tests used:
[1] = test system: Lettuce (the cultivar: Souther); test: Experiment 1: lettuce growth, total dry weight after bottom watering; format: in vivo; details: compositions with 15 mass % GSSG, 10 mass % ALN, 5 mass % ferrous material, 15 mass % seaweed extract; diluted 1000-fold, bottom watering 3 and 4 weeks after seeding
Protocol: Lettuce (the cultivar: Souther) was raised in a plant incubator. Three weeks after the seeding and four weeks after the seeding, a composition comprising 15 mass % oxidized glutathione (GSSG), 10 mass % allantoin (ALN), 5 mass % ferrous material, or 15 mass % seaweed extract, or a composition comprising a combination of 15 mass % GSSG and any of 10 mass % ALN, 5 mass % ferrous material, or 15 mass % seaweed extract was applied to the lettuce. Each composition was diluted 1000-fold, and each resulting solution was applied by bottom watering.
Four weeks after the seeding, the seedling was transplanted into a pot, grown in a glass greenhouse for two weeks, and then, evaluated (repeated 9 times).
Assuming that the value of the total dry weight of the lettuce to which water alone was applied was 100, the total dry weight of the lettuce to which each composition was applied was expressed.

[2] = test system: Lettuce (the cultivar: Souther); test: Experiment 2: lettuce growth under high-temperature stress, total dry weight; format: in vivo; details: diluted 1000-fold, bottom watering, 40° C. for two hours
Protocol: Lettuce (the cultivar: Souther) was raised in a plant incubator. Three weeks after the seeding and four weeks after the seeding, a fertilizer composition comprising 5 mass % GSSG, 10 mass % ALN, or 20 mass % ALN, a fertilizer composition comprising neither GSSG nor ALN, or a fertilizer composition comprising a combination of 5 mass % GSSG and each concentration of ALN was applied. Each fertilizer composition was diluted 1000-fold, and the resulting solution was applied by bottom watering.
Four weeks after the seeding, the seedling was transplanted into a pot, subjected to high-temperature stress at 40° C. for two hours in a plant incubator, and grown for one week. Then, the seedling was transferred into a glass greenhouse, grown for one week, and then, evaluated (repeated 9 times).
Assuming that the value of the total dry weight of the lettuce to which the fertilizer composition comprising neither GSSG nor ALN was applied alone was 100, the total dry weight of the lettuce to which each composition was applied was expressed.

[3] = test system: lettuce (the cultivar: Lollo Rosso or Red Oak); test: Experiment 10: visual evaluation of lettuce coloration after leaf spraying; format: in vivo; design: key: The same degree of coloration as T1 was rated CC; slightly more coloration than T1 was rated BB; much more coloration than T1 was rated AA; details: GSSG 0.125%, ALN 0.5%; sprayed on leaves approximately 1 g/head; one week after spraying; compared with T1
Protocol: Culture soil was put in a 9 cm plastic pot, and seeded with lettuce (the cultivar: Lollo Rosso or Red Oak). After the seeding, the lettuce was grown in an environmentally controlled greenhouse set at 28° C. during the daytime and at 18° C. during the nighttime. Three weeks after the seeding, each test solution shown in Table 5 was sprayed on the leaves at approximately 1 g/head. One week after the spraying, the appearance of the lettuce was visually observed, and the degree of coloration was evaluated. The evaluation was based on a comparison with T1 (the control). The same degree of coloration as T1 was rated CC, slightly more coloration than T1 was rated BB, and much more coloration than T1 was rated AA.

[4] = test system: grape VR cell; test: Experiment 9: cumulative amount of anthocyanin in cultured grape VR cell; format: cell-based; details: GSSG 0.1%, ALN 0.4%; 10 μL at start and 100 μL on 3rd day; measured on 11th day of culture
Protocol: A grape VR cell was cultured in an LS agar culture medium, and the cumulative amount of anthocyanin was measured. The solution for each treatment section as shown in Table 4 was delivered into the cell cluster by drops in an amount of 10 μL at the beginning of the culture, and in an amount of 100 μL on the 3rd day of culture. The amount of anthocyanin was measured on the 11th day of culture. The culture was performed at 27° C. under light irradiation.

| Compound | total dry weight of the lettuce (water alone = 100) [1] | total dry weight of the lettuce (fertilizer composition with neither GSSG nor ALN = 100) ([2]; ALN 0%, GSSG 5 mass %) | degree of coloration, Lollo Rosso [3] | degree of coloration, Red Oak [3] | cumulative amount of anthocyanin [4] | total dry weight of the lettuce (fertilizer composition with neither GSSG nor ALN = 100) ([2]; ALN 10%, GSSG 0% or 5%) | total dry weight of the lettuce (fertilizer composition with neither GSSG nor ALN = 100) ([2]; ALN 20%, GSSG 0% or 5%) |
| --- | --- | --- | --- | --- | --- | --- | --- |
| [Fe+2] [Ferrous iron] | 98 |  |  |  |  |  |  |
| oxidized glutathione [GSSG] | 113 | 108 | CC | BB | neither GSSG alone nor ALN alone affected |  |  |
| NC(=O)NC1NC(=O)NC1=O (stereo not drawn) [ALN, 5-ureidohydantoin] | 123 |  | BB | BB | neither GSSG alone nor ALN alone affected | 104 | 115 |
